Measurements from patent publication US20240285557A1, “PHARMACEUTICAL COMPOSITION COMPRISING LIPASE INHIBITOR FOR TREATMENT OR TREATMENT OF RNA VIRAL INFECTIONS” (priority 2021, published 2024).
Entries after “also recorded” stand apart in the source; their conditions may differ.

Experiments:
SARS COV-2 KCDC03 strain = assay type: cell-based; details: SARS-CoV-2 spike protein, Vero E6; 1, 10, 20 μM
MARC cells = assay: MTT half-maximal cytotoxic concentration (CC50); details: MARC; drugs for 24 hours, MTT
Procedure: (§1) To determine the half-maximal cytotoxic concentration (CC50) of the lipase inhibitors atglistatin and CAY10499, Vero E6, A549, HRT-18G, MA104, MARC-145, and LLC-PK cells were prepared in monolayers in 96-well plates.
(§2) The cells were treated with the drugs for 24 hours, and the culture media was removed before addition of 200 μL of 3-(4,5-dimethylthiazol-2-yl)-2,5-diphenyl tetrazolium bromide (MTT) solution to each well. The plates were then incubated for 4 hours in a 5% CO2 incubator at 36° C. Subsequently, 150 μL of DMSO solution was added to each well and incubated at 20° C. The optical density (OD) was measured at 570 nm wavelength using an enzyme-linked immunosorbent assay (ELISA) reader.

[1] = tested on: porcine epidemic diarrhea coronavirus QIAP1401 strain; assay: Viral antigen expression (Western blot, immunofluorescence) in infected Vero E6 cells; assay type: cell-based; details: PEDV nucleocapsid protein, 1, 10, 20 μM
Procedure: The virus was incubated at 37° C. for 18 hours, after which the medium was changed with a medium containing DABPU-EM or DABPU-DE at a final concentration of 1 μM, […], or 20 μM. Following an additional 18 hours of incubation, the Vero E6 cells in 6-well plates were washed with phosphate-buffered saline, collected by scaping, and centrifuged. The cell pellet thus obtained was subjected to Western blot analysis. The intensity of the porcine epidemic diarrhea coronavirus nucleocapsid protein detected was assessed by comparison with the relative positive signals of the internal control beta-actin using the ImageJ software. Separately, the Vero E6 cells in 8-well chambers were washed with phosphate-buffered saline, fixed with 4% paraformaldehyde, and then subjected to immunofluorescence staining for porcine epidemic diarrhea coronavirus nucleocapsid protein in the same manner as described in the foregoing.

[2] = tested on: bovine species A rotavirus NCDV strain; assay: Viral antigen expression (Western blot, immunofluorescence) in infected MA104 cells; assay type: cell-based; details: rotavirus VP6 protein, 1, 10, 20 μM
[3] = tested on: bovine coronavirus KWD20 strain; assay type: cell-based; details: bovine coronavirus spike protein, HRT-18G; 1, 10, 20 μM
SARS-COV-2 KCDC03 strain = assay: SARS-CoV-2-infected hamsters treated with lipase inhibitor; details: for alleviation (reduction) of pneumonia severity: 80 mg kg^−1 day^−1 intraperitoneally for 4.5 days; for pneumonia severity: 20, 40, 80 mg kg^−1 day^−1, dose-dependent; for production of free fatty acids and glycerol in lung tissue: 20 to 80 mg kg^−1 day^−1; for number of viral genes (viral genome copy number) in lung tissue / progeny viruses in lung tissue: fifth day post-infection; for weight loss: five days observation
[4] = tested on: porcine sapovirus Cowden strain; assay: Viral antigen expression (Western blot, immunofluorescence) in infected LLC-PK cells; assay type: cell-based; details: porcine sapovirus VPg protein, 1, 10, 20 μM
[5] = tested on: influenza A virus PR8 strain; assay type: cell-based; details: influenza A virus M2 protein, A549; 1, 10, 20 μM
[6] = tested on: influenza A virus hemagglutinin (H) and M2 proteins; assay type: cell-based; details: A549, 20 μM; vs vehicle
[7] = tested on: influenza A virus PR8 strain; assay type: cell-based
[8] = tested on: Porcine epidemic diarrhea coronavirus (QIAP1401); assay: organism not typed; details: Vero C1008, 18 h
[9] = MTT half-maximal cytotoxic concentration (CC50); details: rhesus monkey
Procedure: as §1, §2

[10] = tested on: Species A Rotavirus (NCDV); assay: microbe, parasite or virus in culture; details: MA104, in Bos taurus, 12 h
[11] = MTT half-maximal cytotoxic concentration (CC50); details: pig
Procedure: as §1, §2

SARS-COV-2 strain KCDC03 = assay type: cell-based
[12] = tested on: Porcine sapovirus (Cowden); assay: microbe, parasite or virus in culture; details: Sapporo virus, LLCPK, 18 h
[13] = tested on: Influenza A virus (H1N1) (PR8); assay: microbe, parasite or virus in culture; details: H1N1|PR8, A549, 12 h, drug added after 12 hours, additional 12 hours
[14] = tested on: spike (S) protein of SARS-COV-2; assay: Palmitoylation assay in SARS-CoV-2-infected Vero E6 cells; assay type: cell-based; details: Vero E6, 20 μM; vs vehicle
Procedure: CO2 incubator. The cells were then washed with phosphate-buffered saline, and DMEM supplemented with 1 μg/ml TPCK-treated trypsin, 100 u/ml penicillin, and 100 ug/ml streptomycin was added. Afterward, the cells were incubated in a 37° C. CO2 incubator for 18 hours. […] Following an additional 18-hour incubation, the cells were washed with phosphate-buffered saline, treated with trypsin, harvested, and centrifuged. The palmitoylation assay (Badrilla, Leeds, UK) was then conducted on these cells according to the manufacturer's instructions.
The cell pellet was washed with phosphate-buffered saline and then mixed with Buffer A containing Thiol Blocking Reagent. The mixture was incubated at 40° C. for 4 hours with continuous stirring. Subsequently, 70% acetone was added to precipitate the proteins, and the supernatant was discarded. The acetone addition process was repeated five times. The pellet was thoroughly washed, followed by elution in a binding buffer at 40° C. for 3 hours. A portion of the eluted supernatant was mixed with Laemmli Sample Buffer and used as an input control for total protein, while the remainder underwent a purification process for palmitoylated proteins.
Initially, the total protein supernatant was mixed with CAPTUREome™ Capture Resin and Thio Cleavage Reagent, and the mixture was incubated on a rotary mixer at 20° C. for 3 hours. […]

[15] = tested on: Bovine coronavirus (KWD20); assay: microbe, parasite or virus in culture; details: Betacoronavirus 1, 18 h
[16] = tested on: Porcine respiratory reproductive syndrome virus (LMY); assay: microbe, parasite or virus in culture; details: Porcine reproductive and respiratory syndrome virus, MARC145, in Sus scrofa, 18 h
[17] = CC50 range over the cell line panel
Procedure: as §1, §2

[18] = MTT half-maximal cytotoxic concentration (CC50); details: African green monkey
Procedure: as §1, §2

[19] = listed as atglistatin (DABPU-DM)
[20] = vs untreated virus-inoculated group

Procedure for HRT18G cells: as §1, §2

CCN(CC)C(=O)Nc1cccc(-c2ccc(N(C)C)cc2)c1 [DABPU-DE]
expression levels of the viral antigen in infected cells (SARS COV-2 KCDC03 strain): higher inhibitory effects of DABPU-DE than DABPU-EM | CC50 (MARC cells): 216 µM | expression levels of the viral antigen in infected cells [1]: higher inhibitory effects of DABPU-DE than DABPU-EM | expression levels of the viral antigen in infected cells [2]: higher inhibitory effects of DABPU-DE than DABPU-EM | expression levels of the viral antigen in infected cells [3]: higher inhibitory effects of DABPU-DE than DABPU-EM | alleviation (reduction) of pneumonia severity (SARS-COV-2 KCDC03 strain): 75% | pneumonia severity (SARS-COV-2 KCDC03 strain): alleviating pneumonia severity in a dose-dependent manner | production of free fatty acids and glycerol in lung tissue (SARS-COV-2 KCDC03 strain): decreasing; also recorded: lower levels | number of viral genes (viral genome copy number) in lung tissue (SARS-COV-2 KCDC03 strain): significantly reduced | progeny viruses in lung tissue (SARS-COV-2 KCDC03 strain): significantly reduced | weight loss (SARS-COV-2 KCDC03 strain): blocking weight loss | expression levels of the viral antigen in infected cells [4]: higher inhibitory effects of DABPU-DE than DABPU-EM | expression levels of the viral antigen in infected cells [5]: higher inhibitory effects of DABPU-DE than DABPU-EM

CN(C)C(=O)Nc1cccc(-c2ccc(N(C)C)cc2)c1 [Atglistatin, 3-(4′-(dimethylamino)-(1,1′-biphenyl)-3-yl)-1,1-dimethylurea]
palmitoylation of both hemagglutinin (H) and M2 proteins [6]: significantly decreased | levels of free fatty acids and glycerol in the cytoplasm [7]: significant decrease | number of lipid droplets [7]: did not significantly decrease | production of virus M2 protein [7]: significant decrease | progeny virus titer [7]: significant decrease | viral genome copy [7]: significant decrease | IC50 [8]: 1.96 µM | CC50 at 24 h [9]: 214 µM | IC50 [10]: 6.7 µM | CC50 at 24 h [11]: 224 µM | free fatty acids and glycerol in the cytoplasm (SARS-COV-2 strain KCDC03): significant decrease | number of lipid droplets (SARS-COV-2 strain KCDC03): did not decrease significantly | progeny virus count (SARS-COV-2 strain KCDC03): significant decrease | viral gene count (SARS-COV-2 strain KCDC03): significant decrease | virus spike protein synthesis (SARS-COV-2 strain KCDC03): significant decrease | IC50 [12]: 3.11 µM | IC50 [13]: 0.82 µM | palmitoylation of the spike (S) protein of SARS-COV-2 [14]: significantly reduced | IC50 [15]: 1.2 µM | IC50 [16]: 2.53 µM | alleviation (reduction) of pneumonia severity (SARS-COV-2 KCDC03 strain): 73% | alleviation (reduction) of pneumonia severity (SARS-COV-2 KCDC03 strain; [19]): 70% | pneumonia severity (SARS-COV-2 KCDC03 strain): alleviating pneumonia severity in a dose-dependent manner | production of free fatty acids and glycerol in lung tissue (SARS-COV-2 KCDC03 strain): significantly reducing | production of free fatty acids and glycerol in lung tissue (SARS-COV-2 KCDC03 strain; [19]): decreasing | number of viral genes (viral genome copy number) in lung tissue (SARS-COV-2 KCDC03 strain): significant decrease | progeny viruses in lung tissue (SARS-COV-2 KCDC03 strain): significant decrease | number of viral genes (viral genome copy number) in lung tissue (SARS-COV-2 KCDC03 strain; [19]): significantly reduced | progeny viruses in lung tissue (SARS-COV-2 KCDC03 strain; [19]): significantly reduced | weight loss (SARS-COV-2 KCDC03 strain): ceasing weight loss | weight loss (SARS-COV-2 KCDC03 strain; [19]): blocking weight loss | level of viral antigens in the alveolar epithelial cells (SARS-COV-2 KCDC03 strain; [20]): significant decrease | lung lesions, including interstitial pneumonia, and number of virus-positive cells (SARS-COV-2 KCDC03 strain; [20]): alleviating and reducing | number of lipid droplets in alveolar epithelial cells (SARS-COV-2 KCDC03 strain; [20]): did not decrease significantly | CC50 at 24 h [17]: 182 to 269 µM

CCN(C)C(=O)Nc1cccc(-c2ccc(N(C)C)cc2)c1 [DABPU-EM, 3-(4′-(dimethylamino)-(1,1′-biphenyl)-3-yl)-1-ethyl-1-methylurea]
expression levels of the viral antigen in infected cells (SARS COV-2 KCDC03 strain): inhibitory activity | IC50 [8]: 1.94 µM | CC50 at 24 h [9]: 223 µM | IC50 [10]: 7.08 µM | CC50 at 24 h [11]: 231 µM | CC50 at 24 h [18]: 210 µM | expression levels of the viral antigen in infected cells [1]: inhibitory activity | IC50 [12]: 3.7 µM | IC50 [13]: 1.63 µM | expression levels of the viral antigen in infected cells [2]: inhibitory activity | IC50 [15]: 3.44 µM | IC50 [16]: 2.7 µM | expression levels of the viral antigen in infected cells [3]: inhibitory activity | expression levels of the viral antigen in infected cells [4]: inhibitory activity | CC50 at 24 h ([17]; human, African green monkey, dog, pig): 186 to 231 µM | expression levels of the viral antigen in infected cells [5]: inhibitory activity

COc1nn(-c2ccc(NC(=O)OCc3ccccc3)c(C)c2)c(=O)o1 [CAY10499]
palmitoylation of both hemagglutinin (H) and M2 proteins [6]: significantly decreased | levels of free fatty acids and glycerol in the cytoplasm [7]: significant decrease | number of lipid droplets [7]: did not significantly decrease | production of virus M2 protein [7]: significant decrease | progeny virus titer [7]: significant decrease | viral genome copy [7]: significant decrease | CC50 (HRT18G cells): 104 µM | free fatty acids and glycerol in the cytoplasm (SARS-COV-2 strain KCDC03): significant decrease | number of lipid droplets (SARS-COV-2 strain KCDC03): did not decrease significantly | progeny virus count (SARS-COV-2 strain KCDC03): significant decrease | viral gene count (SARS-COV-2 strain KCDC03): significant decrease | virus spike protein synthesis (SARS-COV-2 strain KCDC03): significant decrease | palmitoylation of the spike (S) protein of SARS-COV-2 [14]: significantly reduced
